Results as given in ChEMBL document CHEMBL1201862, “PubChem BioAssay data set” (2004).
Values belong to the compound of their own block, whether it stands above or below them. Calls of active or inactive are those of the source.

Assays:
Wee1-like protein kinase = Wee1-like protein kinase (Homo sapiens, UniProt P30291); test: Dose Response Cell-based Assay for Inhibitors of Wee1 Degradation. [Related pubchem assays: 1410, 1321 ]; format: functional
[1] = target: G2/mitotic-specific cyclin-B1 (Homo sapiens, UniProt P14635); test: Counterscreen assay for inhibitors of Wee1 degradation: dose response cell-based assay to identify inhibitors of cyclin B degradation. [Related pubchem assays: 1410, 1321 ]; format: functional
[2] = A549 cell cytotoxicity, dose response, cytotoxicity control, plate reader, cherry-pick, antagonist series (AID 743412); format: functional, cell-based
HT-1080 = test: cytotoxicity in HT1080 fibrosarcoma cells, cell-based, fluorescence readout (AID 620); format: functional; conditions: Homo sapiens
[3] = HEK293 cell cytotoxicity, dose response, cytotoxicity control, plate reader, cherry-picked samples (AID 743446); format: functional, cell-based
[4] = LGR2 antagonists, dose response, cell-based, HEK293, CRE-luciferase reporter, cherry pick, set 2 (AID 743343); format: functional;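 further: transfected cells were stimulated with diluted bursicon conditioned medium after compound addition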
[5] = MC4R antagonists, dose response, counter-screen for LGR2 antagonist project, cell-based, plate reader, cherry pick (AID 743444); format: functional;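 further: transfected HEK 293 cells stimulated with alpha-MSH peptide; potency of inhibitors of the alpha-MSH evoked signal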
[6] = target: Luciferin 4-monooxygenase (Photinus pyralis, UniProt P08659); test: Counter Screen for Luciferase-based Assay Positives. [Related pubchem assays: 620, 618, 411 ]
[7] = Counterscreen for IDE inhibitors: Luminescence-based cell-based high throughput dose response assay to identify compounds that are cytotoxic to HEK cells. [Related pubchem assays: 434962 (Primary screen (IDE inhibitors in singlicate)), 449730 (Counterscreen (Cytotoxicity in triplicate)), 435028 (Confirmation (IDE inhibitors in triplicate)) …; format: functional; conditions: HEK293
Insulin-degrading enzyme = target: T1, Insulin-degrading enzyme (Homo sapiens, UniProt P14735); test: Dose Response: Fluorescence polarization-based cell-based high throughput dose response assay for inhibitors of insulin-degrading enzyme (IDE). [Related pubchem assays: 434962 (Primary screen (IDE inhibitors in singlicate)), 449730 (Counterscreen (Cytotoxicity in triplicate)), 435028 (Confirmation (IDE inhibitors in triplicate)), 434984 (Summary …; format: functional
T1 sequence (P14735 whole entry): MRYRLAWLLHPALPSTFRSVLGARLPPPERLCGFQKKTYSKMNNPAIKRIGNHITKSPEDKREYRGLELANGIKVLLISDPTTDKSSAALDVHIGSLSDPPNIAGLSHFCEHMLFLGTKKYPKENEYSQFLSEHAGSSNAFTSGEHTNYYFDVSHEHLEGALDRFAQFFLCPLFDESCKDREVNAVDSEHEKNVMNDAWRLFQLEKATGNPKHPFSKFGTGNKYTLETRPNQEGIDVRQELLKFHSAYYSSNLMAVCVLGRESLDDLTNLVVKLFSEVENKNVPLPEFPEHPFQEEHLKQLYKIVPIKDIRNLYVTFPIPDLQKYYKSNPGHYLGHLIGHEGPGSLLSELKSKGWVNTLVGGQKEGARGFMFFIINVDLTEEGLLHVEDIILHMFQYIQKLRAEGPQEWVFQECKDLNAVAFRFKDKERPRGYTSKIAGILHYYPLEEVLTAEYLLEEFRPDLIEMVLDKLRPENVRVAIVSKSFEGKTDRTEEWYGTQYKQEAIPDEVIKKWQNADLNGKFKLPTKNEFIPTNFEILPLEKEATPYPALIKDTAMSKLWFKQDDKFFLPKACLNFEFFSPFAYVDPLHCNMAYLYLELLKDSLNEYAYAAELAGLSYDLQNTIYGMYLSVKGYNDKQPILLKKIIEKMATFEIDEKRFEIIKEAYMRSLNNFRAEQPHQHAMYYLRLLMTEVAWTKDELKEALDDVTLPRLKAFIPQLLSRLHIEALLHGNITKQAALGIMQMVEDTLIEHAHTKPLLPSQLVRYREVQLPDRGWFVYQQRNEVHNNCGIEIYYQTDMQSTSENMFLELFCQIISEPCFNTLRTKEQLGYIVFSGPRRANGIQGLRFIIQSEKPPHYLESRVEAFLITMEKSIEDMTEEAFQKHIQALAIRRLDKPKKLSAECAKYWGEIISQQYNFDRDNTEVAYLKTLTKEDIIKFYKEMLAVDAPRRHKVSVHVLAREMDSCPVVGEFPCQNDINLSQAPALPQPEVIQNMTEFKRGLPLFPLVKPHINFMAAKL

[8] = inhibitors of Bluetongue virus cytopathic effect, confirmation, arbovirus, BSR cells (AID 1250); format: functional;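 further: protection from viral cytopathic effect measured as cell viability by ATP luminescence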
[9] = Luminescence Cell-Based Dose Retest to Confirm Inhibitors of Cancer Stem Cells. [Related pubchem assays (depositor defined):AID2717, AID2721]; format: functional; conditions: Homo sapiens

Chain of G2/mitotic-specific cyclin-B1 (P14635 whole entry): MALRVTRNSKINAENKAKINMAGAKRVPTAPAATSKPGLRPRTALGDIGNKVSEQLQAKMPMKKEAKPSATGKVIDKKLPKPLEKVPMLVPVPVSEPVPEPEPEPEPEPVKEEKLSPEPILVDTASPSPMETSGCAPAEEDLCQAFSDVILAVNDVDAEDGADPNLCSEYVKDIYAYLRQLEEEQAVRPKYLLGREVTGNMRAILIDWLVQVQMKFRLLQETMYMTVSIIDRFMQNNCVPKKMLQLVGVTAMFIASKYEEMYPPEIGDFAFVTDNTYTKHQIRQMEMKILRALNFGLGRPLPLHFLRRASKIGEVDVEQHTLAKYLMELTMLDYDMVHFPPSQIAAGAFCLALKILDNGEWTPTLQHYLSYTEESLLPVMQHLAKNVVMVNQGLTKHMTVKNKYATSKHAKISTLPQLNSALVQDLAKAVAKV
Chain of Luciferin 4-monooxygenase (P08659 whole entry): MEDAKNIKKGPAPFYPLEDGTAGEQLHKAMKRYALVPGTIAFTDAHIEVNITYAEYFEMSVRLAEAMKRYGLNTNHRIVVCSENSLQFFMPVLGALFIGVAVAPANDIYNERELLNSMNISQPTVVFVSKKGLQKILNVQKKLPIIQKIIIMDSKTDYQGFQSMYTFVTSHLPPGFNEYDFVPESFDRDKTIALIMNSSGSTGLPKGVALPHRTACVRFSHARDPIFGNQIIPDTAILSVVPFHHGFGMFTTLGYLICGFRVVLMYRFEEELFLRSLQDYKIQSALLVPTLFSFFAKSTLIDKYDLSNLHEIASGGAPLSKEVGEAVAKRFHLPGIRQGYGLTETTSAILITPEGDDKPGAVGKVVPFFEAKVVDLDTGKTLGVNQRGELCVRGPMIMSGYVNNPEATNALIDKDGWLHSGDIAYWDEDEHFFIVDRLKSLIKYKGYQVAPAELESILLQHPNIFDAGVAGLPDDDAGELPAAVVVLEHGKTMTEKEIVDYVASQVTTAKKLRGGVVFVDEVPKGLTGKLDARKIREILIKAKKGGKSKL
Chain of Wee1-like protein kinase (P30291 whole entry): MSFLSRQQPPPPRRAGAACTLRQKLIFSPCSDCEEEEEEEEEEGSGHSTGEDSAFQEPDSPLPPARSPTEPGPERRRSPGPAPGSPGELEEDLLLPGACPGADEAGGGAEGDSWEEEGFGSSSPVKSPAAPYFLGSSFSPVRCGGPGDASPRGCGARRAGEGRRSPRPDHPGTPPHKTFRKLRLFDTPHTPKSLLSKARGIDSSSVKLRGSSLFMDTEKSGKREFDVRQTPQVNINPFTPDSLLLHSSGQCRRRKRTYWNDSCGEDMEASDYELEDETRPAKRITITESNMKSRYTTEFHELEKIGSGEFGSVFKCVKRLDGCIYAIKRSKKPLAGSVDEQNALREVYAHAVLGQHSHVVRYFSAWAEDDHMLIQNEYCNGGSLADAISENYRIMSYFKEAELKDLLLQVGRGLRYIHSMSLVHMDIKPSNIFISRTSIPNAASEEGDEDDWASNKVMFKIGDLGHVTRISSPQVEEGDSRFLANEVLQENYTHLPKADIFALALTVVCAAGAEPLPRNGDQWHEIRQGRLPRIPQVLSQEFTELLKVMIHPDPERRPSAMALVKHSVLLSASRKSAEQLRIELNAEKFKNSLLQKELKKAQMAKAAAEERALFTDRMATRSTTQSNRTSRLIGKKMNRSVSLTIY

EC50 (Wee1-like protein kinase): > 49.7 µM (not active)
EC50 [1]: > 49.7 µM (not active)
SMILES: O=C(COc1ccc(C(=O)c2ccc(F)cc2)cc1)NCc1ccc(F)cc1

SMILES: CCOc1ccc(C(=O)NCCc2ccccc2)cc1
AC50 [2]: > 52 µM (inactive)
EC50 (HT-1080): > 50 µM (not active)
AC50 [3]: > 52 µM (inactive)
AC50 [4]: 4.83 µM (active)
AC50 [5]: 3.43 µM (active)
EC50 [6]: 1.09 µM (active)

SMILES: CCOc1ccccc1-n1c(SCC(=O)N2CCCc3ccccc32)nnc1-c1cccnc1
IC50 [7]: 24.8 µM (not active)
IC50 (Insulin-degrading enzyme): > 55.9 µM (not active)

SMILES: CC(C)(Oc1ccc(Cl)cc1)C(=O)NC1=NN(c2ccccc2)C(=O)C1
IC50 [8]: 31.8 µM (active)
AC50 [9]: 3.91 µM (active)
